Earlier results, collected in patent publication US20150173349A1, “Agroformulation comprising copolymer of an amide, polyalkylene glycol (meth)acrylate, and alkyl (meth)acrylate” (BASF SE, priority 2012, published 2015).
In brackets after ≈: the same amount, converted by molar mass.

Conditions: 20° C.

For `Cn1cc(C(=O)Nc2ccccc2-c2cc(F)c(F)c(F)c2)c(C(F)F)n1` [fluxapyroxad], the solubility in water is given as 3.88 µg/mL (≈ 10.2 µM).
